SMILES strings stand for the structures.

30 compounds from ChEMBL document CHEMBL4145662, “Novel Nonsteroidal Progesterone Receptor (PR) Antagonists with a Phenanthridinone Skeleton” (ACS Med Chem Lett, 2018) can be followed below.

The first data set addresses T1, Progesterone receptor (Homo sapiens, UniProt P06401).
T1 sequence (P06401 whole entry): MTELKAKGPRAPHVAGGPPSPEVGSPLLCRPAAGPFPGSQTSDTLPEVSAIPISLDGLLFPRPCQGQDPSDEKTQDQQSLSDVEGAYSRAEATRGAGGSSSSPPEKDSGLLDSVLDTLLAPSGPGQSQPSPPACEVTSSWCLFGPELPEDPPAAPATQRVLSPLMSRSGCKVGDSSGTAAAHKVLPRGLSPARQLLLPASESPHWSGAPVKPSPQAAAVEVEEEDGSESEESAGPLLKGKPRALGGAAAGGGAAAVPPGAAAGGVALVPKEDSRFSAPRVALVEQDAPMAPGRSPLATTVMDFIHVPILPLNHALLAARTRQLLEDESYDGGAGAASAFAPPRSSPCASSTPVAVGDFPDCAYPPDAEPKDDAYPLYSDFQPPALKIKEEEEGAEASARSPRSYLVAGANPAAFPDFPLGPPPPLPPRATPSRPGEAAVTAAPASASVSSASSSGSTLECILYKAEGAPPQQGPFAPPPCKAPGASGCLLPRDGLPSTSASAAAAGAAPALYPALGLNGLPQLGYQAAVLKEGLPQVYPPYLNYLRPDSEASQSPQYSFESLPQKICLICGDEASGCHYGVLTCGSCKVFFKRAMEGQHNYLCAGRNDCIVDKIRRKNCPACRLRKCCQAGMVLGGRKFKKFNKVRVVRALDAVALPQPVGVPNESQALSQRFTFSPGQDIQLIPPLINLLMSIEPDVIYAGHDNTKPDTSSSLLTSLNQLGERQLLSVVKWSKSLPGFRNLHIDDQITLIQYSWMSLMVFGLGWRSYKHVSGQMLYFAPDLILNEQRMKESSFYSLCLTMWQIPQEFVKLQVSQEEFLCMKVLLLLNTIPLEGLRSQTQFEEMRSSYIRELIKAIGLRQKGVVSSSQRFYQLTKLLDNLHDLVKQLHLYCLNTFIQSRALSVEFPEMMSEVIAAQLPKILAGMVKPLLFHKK
The data set can be described thus: Antagonist activity at PR in human T47D cells assessed as inhibition of progesterone-induced alkaline phosphatase activity measured after 24 hrs. It is filed as cell-based.
As to `CCCCn1c(=O)c2ccccc2c2cc(CC)ccc21`, the IC50 stood at 7800 nM. The same measure, in the same setting: with `CCCCn1c(=O)c2ccccc2c2cc(C(C)(C)C)ccc21` the figure was 8300 nM. Still for that read-out and setting: with `O=c1[nH]c2ccc(C(O)(C(F)(F)F)C(F)(F)F)cc2c2ccc(F)cc12` the figure was 310 nM; with `CCCCn1c(=O)c2ccccc2c2cc(C(O)(C(F)(F)F)C(F)(F)F)c(OC)cc21`, 410 nM; with `CCCCn1c(=O)c2cccc(OC)c2c2cc(C(O)(C(F)(F)F)C(F)(F)F)ccc21`, 2700 nM. The same measure, in the same setting: with `O=S(=O)(Nc1ccc(Oc2ccccc2)cc1)c1cccc(C(F)(F)F)c1` the figure was 107 nM. In the case of `Cc1cc(C(O)(C(F)(F)F)C(F)(F)F)cc2c3ccccc3c(=O)n(C)c12`, the IC50 was determined as 180 nM. `CCCCn1c(=O)c2cc(OC)ccc2c2cc(C(O)(C(F)(F)F)C(F)(F)F)ccc21`: the IC50 was 1100 nM. Still for that read-out and setting: with `CCCCn1c(=O)c2ccccc2c2cc(C(O)(C(F)(F)F)C(F)(F)F)ccc21` the figure was 1200 nM.

Consider `CCCCn1c(=O)c2ccccc2c2cc(C)ccc21`, for which the IC50 turned out to be 7900 nM. The same measure, in the same setting: next, `O=c1[nH]c2ccc(C(O)(C(F)(F)F)C(F)(F)F)cc2c2cc(F)ccc12`: 1000 nM. Same read-out and setting: next, `CCCCCCCCCn1c(=O)c2ccccc2c2cc(C(O)(C(F)(F)F)C(F)(F)F)ccc21`: 10000 nM; `CCCCn1c(=O)c2ccc(OC)cc2c2cc(C(O)(C(F)(F)F)C(F)(F)F)ccc21`: 5800 nM.

Turning to `CCCCn1c(=O)c2c(OC)cccc2c2cc(C(O)(C(F)(F)F)C(F)(F)F)ccc21`, the IC50 was 12000 nM. Take `CCCCn1c(=O)c2ccccc2c2cc(C(O)(C(F)(F)F)C(F)(F)F)cc(OC)c21`: the IC50 came out at 560 nM.

Take `Cn1c(C#N)ccc1-c1ccc2oc(=O)ccc2c1`: the IC50 came to 123 nM. For `CCn1c(=O)c2ccccc2c2cc(C(O)(C(F)(F)F)C(F)(F)F)ccc21`, the IC50 was 1400 nM.

Regarding `O=c1[nH]c2c(F)cc(C(O)(C(F)(F)F)C(F)(F)F)cc2c2ccccc12`, the IC50 was determined as 130 nM.

As for `CCc1cc(C(O)(C(F)(F)F)C(F)(F)F)cc2c1[nH]c(=O)c1ccccc12`, the IC50 is 210 nM. Take `CCCCn1c(=O)c2ccccc2c2ccccc21`: the IC50 worked out at 7100 nM. On the same count and under the same terms, with `O=c1[nH]c2ccc(C(O)(C(F)(F)F)C(F)(F)F)cc2c2ccccc12` the figure was 780 nM; with `CCCn1c(=O)c2ccccc2c2cc(C(O)(C(F)(F)F)C(F)(F)F)ccc21`, 3800 nM; with `Cn1c(=O)c2ccccc2c2cc(C(O)(C(F)(F)F)C(F)(F)F)ccc21`, 340 nM. The same measure, in the same setting: with `CCCCCCn1c(=O)c2ccccc2c2cc(C(O)(C(F)(F)F)C(F)(F)F)ccc21` the figure was 2500 nM; with `O=c1[nH]c2ccc(C(O)(C(F)(F)F)C(F)(F)F)cc2c2cccc(F)c12`, 730 nM. Still for that read-out and setting: with `CCCc1cc(C(O)(C(F)(F)F)C(F)(F)F)cc2c1[nH]c(=O)c1ccccc12` the figure was 360 nM. For the compound `CCCCn1c(=O)c2ccccc2c2c(OC)c(C(O)(C(F)(F)F)C(F)(F)F)ccc21`, the IC50 stood at 4000 nM. Regarding `COc1cc(C(O)(C(F)(F)F)C(F)(F)F)cc2c1[nH]c(=O)c1ccccc12`, the IC50 came out at 270 nM.

For `CCCCn1c(=O)c2ccccc2c2cc(CO)ccc21`, the IC50 was 8600 nM.

A further data set deals with T1, Progesterone receptor. The experiment in a line: Agonist activity at PR in human T47D cells at 10 uM. It is filed as cell-based.
`O=S(=O)(Nc1ccc(Oc2ccccc2)cc1)c1cccc(C(F)(F)F)c1`: the Activity result is “Not Active”. For the compound `CC#C[C@]1(O)CC[C@H]2[C@@H]3CCC4=CC(=O)CCC4=C3[C@@H](c3ccc(N(C)C)cc3)C[C@@]21C` [MIFEPRISTONE], the Activity entry was “Not Active”. Still for that read-out and setting: with `Cn1c(C#N)ccc1-c1ccc2oc(=O)ccc2c1` the entry was “Not Active”.
